Assay results reported in patent US20230000876A1, “TREATING CANCERS WITH A CYCLIN-DEPENDENT KINASE INHIBITOR” (Nuvation Bio Inc., priority 2021, published 2023).

Columns and labels:
H1975-luc = experiment: CellTiter-Glo anti-proliferation assay, H1975-luc; assay type: cell-based
Procedure: (§1) The anti-proliferation effect of 2 compounds (the compound of formula (I) and temozolomide) in 7 CNS metastasis cell lines (MOLT-4-luc, Nalm-6-luc, NCI-H460-luc, ACHN-luc2, PC-9-luc, H1975-luc, and KM12-luc) was evaluated.
(§2) The plating of cells and compound treatments are shown below in the plate map (Table 12). One plate was needed for the test of 2 compounds (the compound of formula (I) and temozolomide) in one cell line. The compound of formula (I) was tested from 10 μM, 3-fold serial dilution. Temozolomide was tested from 100 μM, 3-fold serial dilution.
(§3) All the cell lines were maintained in culture conditions at 37° C. in an atmosphere with 5% CO2 in air. The tumor cells were routinely subcultured. The cells growing in an exponential growth phase were harvested and counted for plating.
(§4) Cells were counted by haemocytometer with Trypan blue staining. Next, 135 μL of cell suspension were plated into the assay plates according to the plate map and 135 μL of assay medium into the blank wells. The plates were incubated at 37° C., 5% CO2, 95% air and 100% relative humidity overnight.
(§5) 4.4.4 Compound Plate (10×) Preparation and Compound Treatment • 10× concentrate compound plate preparation: Add 198 μL of assay medium into each well of the V-bottom plate; then transfer 2 μL of the stock compound solution of each concentration from the stock plate. Add 2 μL of DMSO into the Blank and Control wells. Pipette up and down to mix well. This V-plate is designated as the 10× concentrate compound plate. • For day 0 plate, add 15 μL of the DMSO-medium into the Control wells. The final DMSO concentration was 0.1%. Then directly proceed to cell viability assay. • For assay plate, add 15 μL of the compound-medium of each well from the 10× concentrate compound plate into the cells in 96-well assay plate according to the plate map. Add 15 μL of the DMSO-medium into the Blank and Control wells. The final DMSO concentration was 0.1%. • Return the assay plate into incubator and incubate for 6 days.
(§6) The procedures were performed according to the Promega CellTiter-Glo Luminescent Cell Viability Assay Kit manual (Promega-G7573). • The CellTiter-Glo buffer was thawed and equilibrated to room temperature prior to use. • CellTiter-Glo Substrate was equilibrated to room temperature prior to use. • The entire liquid volume of CellTiter-Glo Buffer was transferred into the amber bottle containing CellTiter-Glo Substrate to reconstitute the lyophilized enzyme/substrate mixture. This forms the CellTiter-Glo Reagent. • The contents were mixed by gently vortexing to obtain a homogeneous solution. • The plate was equilibrated and its contents to room temperature for approximately 30 minutes. 75 μL (equal to the half volume of culture medium present in each well) CellTiter-Glo • Reagent was added in each well. Plates were covered with aluminum foil to protect from light. • The contents were mixed for 2 minutes on an orbital shaker to induce cell lysis. • The plate was incubated at room temperature for 20 minutes to stabilize luminescent signal. • Record luminescence on the 2104 EnVision plate reader.
(§7) Inhibition rate (IR) of the tested compounds was determined by the following formula: IR (%)=(1−(RLU compound−RLU day0)/(RLU control−RLU day0))*100%. The inhibitions of different dose of compound were calculated in Excel file, and then were used to plot inhibition curves and evaluate related parameters, such as Min (%), Max (%) and GI50. The data were interpreted by GraphPad Prism.

MOLT-4-luc = experiment: CellTiter-Glo anti-proliferation assay, MOLT-4-luc; assay type: cell-based
Procedure: as §1, §2, §3, §4, §5, §6, §7

NCI-H460-luc = experiment: CellTiter-Glo anti-proliferation assay, NCI-H460-luc; assay type: cell-based
Procedure: as §1, §2, §3, §4, §5, §6, §7

[1] = system: U-87MG-luc orthotopic intracranial tumors; experiment: U-87MG-luc glioblastoma orthotopic intracranial model, survival; assay type: in vivo, female BALB/c nude mice; settings: 1 mg/kg PO*QD × 5/7 days (vehicle 37 days)
Procedure: U-87MG-luc cells were derived from U-87MG parental cells acquired from ATCC by stably introducing the gene that encodes the luciferase (luc) protein. The U-87MG-luc cells were cultured at 37° C. in an atmosphere of 5% CO2 in air. The tumor cells were routinely subcultured twice weekly. The cells growing in an exponential growth phase were harvested and counted for tumor inoculation.
3×10^5 U-87MG-luc tumor cells were micro-injected into the right lobe (caudate nucleus) of the brain of each mouse. A total of 94 mice were inoculated. Ten days after cell inoculation, bioluminescence were measured by Xenogen IVIS Lumina II machine, 70 mice were selected and randomly assigned into 7 groups based on bioluminescence intensity and bodyweight. The mice were dosed according to Table 25.

U-118MG xenograft tumors = experiment: U-118MG glioma subcutaneous xenograft model; assay type: in vivo, female CB17 SCID mice; settings: QD; for Tumor volume (mean ± SEM): 1 mg/kg PO
Procedure: The tumor cells were routinely subcultured twice weekly. The cells growing in an exponential growth phase were harvested and counted for tumor inoculation.
The treatments was started on day 7 after tumor inoculation when the average tumor volume reached 150 mm^3. 60 mice were selected and assigned into 6 groups. The testing articles were administrated to the mice according to Table 1.
(§8) Tumor size was measured twice weekly in two dimensions using a caliper, and the volume was expressed in mm^3 using the formula: V=0.5 a×b^2 where a and b are the long and short diameters of the tumor, respectively. The tumor sizes are then used for the calculation of T/C and TGI values.
(§9) The T/C value (in percent) is an indication of antitumor effectiveness; T and C are the mean volume of the treated and control groups, respectively, on a given day.
(§10) TGI was calculated for each group using the formula: TGI (%)=[1−(Ti−T0)/(Vi−V0)]×100; Ti is the average tumor volume of a treatment group on PG-D28 T0 is the average tumor volume of the treatment group on the day of treatment start, Vi is the average tumor volume of the vehicle control group on the same day with Ti, and V0 is the average tumor volume of the vehicle group on the day of treatment start.
All Groups were taken down on PG-D28, tumor, plasma and brain samples were collected.
For statistical analysis for difference among groups 2-6 and group 1, a one-way ANOVA was performed. All the analysis were conducted using GraphPad Prism software. p<0.05 was considered to be statistically significant.

KM12-luc = experiment: CellTiter-Glo anti-proliferation assay, KM12-luc; assay type: cell-based
Procedure: as §1, §2, §3, §4, §5, §6, §7

PC-9-luc = experiment: CellTiter-Glo anti-proliferation assay, PC-9-luc; assay type: cell-based
Procedure: as §1, §2, §3, §4, §5, §6, §7

ACHN-luc2 = experiment: CellTiter-Glo anti-proliferation assay, ACHN-luc2; assay type: cell-based
Procedure: as §1, §2, §3, §4, §5, §6, §7

Nalm-6-luc = experiment: CellTiter-Glo anti-proliferation assay, Nalm-6-luc; assay type: cell-based
Procedure: as §1, §2, §3, §4, §5, §6, §7

[2] = system: tumor fragments from a mCRPC patient; experiment: Enzalutamide-resistant patient-derived xenograft prostate model (ST2347 PDX); assay type: in vivo, male Balb/c nude mice; settings: 30 mg/kg oral QD
22Rv1 tumors = experiment: 22Rv1 prostate tumor model (Example 3); assay type: in vivo, male Balb/c nude mice; settings: for Tumor volume (mean ± SEM): 30 mg/kg PO QD
Procedure: The in vivo anti-tumor efficacy of the compound of formula (I) either alone or in combination with enzalutamide prostate tumor model on male Balb/c nude mice was evaluated. The cell line is derived from a xenograft that was serially propagated in mice after castration—induced regression and relapse of the parental, androgen-dependent CWR22 xenograft.
In the study, the compound of formula (I) was dosed orally (po) once daily (QD) and enzalutamide, when administered, was dosed orally once daily for 25 days, as shown in Table 8.
The 22Rv1 tumor cells were maintained in vitro in RPMI1640 medium supplemented with 10% heat inactivated fetal bovine serum at 37° C. in an atmosphere of 5% CO2 in air. The tumor cells were routinely subcultured twice weekly. The cells growing in an exponential growth phase were harvested and counted for tumor inoculation.
Each mouse was inoculated subcutaneously at the right flank with 22Rv1 tumor cells (5*10^6) with 50% Matrigel for tumor development. The treatments were started on day 7 after tumor inoculation when the average tumor volume reached 94 mm^3. A total of 48 mice were selected and assigned into 6 groups. The testing articles were administrated to the mice according to Table 8.
as §8, with “The major endpoint was to see if the tumor growth could be delayed or mice could be cured. Tumor” for “Tumor”
as §9
as §10, with “PG-Di,” for “PG-D28”
All groups were taken down on PG-D24 and PG-D25 when the average tumor size of vehicle group reached 2305 mm^3.
Summary statistics, including mean and the standard error of the mean (SEM), are provided for the tumor volume of each group at each time point. For comparison among groups, a one-way ANOVA was performed. All the analysis were conducted using GraphPad Prism software. p<0.05 was considered to be statistically significant.

VCap prostate cancer = experiment: Non-castrated VCap prostate cancer model; assay type: in vivo, male CB17/Scid mice; settings: Group 2: Enzalutamide 20 mg/kg p.o. QD * 26 days
Procedure: Compound (I), enzalutamide, and abiraterone were tested in non-castrated VCap prostate cancer model in male CB17/Scid mice.
All treatment groups reduced mean tumor volume.

[3] = 144 h, 6 days incubation, read-out: Absolute GI50
[4] = inhibition rate, 6 days, Compound (I) from 10 μM, temozolomide from 100 μM, 3-fold, 9 points
[5] = Group 6: Temozolomide 1 mg/kg PO, PG-D27
[6] = enzalutamide 30 mg/kg QD, PG-D24

Which results are given for Cn1nnc2c(C(N)=O)ncn2c1=O [Temozolomide, reference compound]?
GI50 (H1975-luc; [3]): > 100 µM; Max (%) (H1975-luc; [4]): 13.0%; Min (%) (H1975-luc; [4]): −0.3%; GI50 (MOLT-4-luc; [3]): > 100 µM; Max (%) (MOLT-4-luc; [4]): 23.2%; Min (%) (MOLT-4-luc; [4]): −2.2%; GI50 (NCI-H460-luc; NCI-H460-Luc, 144 h, 6 days incubation, read-out: Absolute GI50): > 100 µM; Max (%) (NCI-H460-luc; [4]): 7.2%; Min (%) (NCI-H460-luc; [4]): 4.8%; Median survival [1]: 44 days; Tumor volume (mean ± SEM) (U-118MG xenograft tumors; day 0): 154 ± 12 mm^3; Tumor volume (mean ± SEM) (U-118MG xenograft tumors; day 3): 239 ± 18 mm^3; Tumor volume (mean ± SEM) (U-118MG xenograft tumors; day 7): 306 ± 17 mm^3; Tumor volume (mean ± SEM) (U-118MG xenograft tumors; day 10): 346 ± 22 mm^3; Tumor volume (mean ± SEM) (U-118MG xenograft tumors; day 14): 358 ± 22 mm^3; Tumor volume (mean ± SEM) (U-118MG xenograft tumors; day 17): 395 ± 30 mm^3; Tumor volume (mean ± SEM) (U-118MG xenograft tumors; day 21): 411 ± 31 mm^3; Tumor volume (mean ± SEM) (U-118MG xenograft tumors; day 24): 423 ± 35 mm^3; Tumor volume (mean ± SEM) (U-118MG xenograft tumors; day 28): 473 ± 44 mm^3; T/C (U-118MG xenograft tumors; [5]): 74.94%; TGI (U-118MG xenograft tumors; [5]): 33.24%; Tumor Size (U-118MG xenograft tumors; [5]): 473 ± 44 mm^3; GI50 (KM12-luc; KM12-Luc, 144 h, 6 days incubation, read-out: Absolute GI50): > 100 µM; Max (%) (KM12-luc; [4]): 1.6%; Min (%) (KM12-luc; [4]): −12.1%; GI50 (PC-9-luc; [3]): > 100 µM; Max (%) (PC-9-luc; [4]): 5.6%; Min (%) (PC-9-luc; [4]): −13.1%; GI50 (ACHN-luc2; ACHN-luc2, 144 h, 6 days incubation, read-out: Absolute GI50): > 100 µM; Max (%) (ACHN-luc2; [4]): 20.0%; Min (%) (ACHN-luc2; [4]): 2.8%; GI50 (Nalm-6-luc; [3]): > 100 µM; Max (%) (Nalm-6-luc; [4]): 22.9%; Min (%) (Nalm-6-luc; [4]): 6.5%

Which “Antitumor activity over the course of the treatment” value [2] does the source give for CNC(=O)c1ccc(N2C(=S)N(c3ccc(C#N)c(C(F)(F)F)c3)C(=O)C2(C)C)cc1F [Enzalutamide, reference compound] here?
The value was “minimal effect”.

And the “Tumor volume (mean ± SEM)” value (22Rv1 tumors; day 0)?
The value was 94 ± 4 mm^3.

And the “Tumor volume (mean ± SEM)” value (22Rv1 tumors; day 3)?
Its value is 177 ± 13 mm^3.

And the “Tumor volume (mean ± SEM)” value (22Rv1 tumors; day 7)?
The value was 345 ± 23 mm^3.

And the “Tumor volume (mean ± SEM)” value (22Rv1 tumors; day 10)?
Its value is 507 ± 53 mm^3.

And the “Tumor volume (mean ± SEM)” value (22Rv1 tumors; day 14)?
The value was 825 ± 65 mm^3.

What about the “Tumor volume (mean ± SEM)” value (22Rv1 tumors; day 17) of the same molecule?
Its value is 1115 ± 65 mm^3.

And the “Tumor volume (mean ± SEM)” value (22Rv1 tumors; day 21)?
The value was 1531 ± 143 mm^3.

What about the “Tumor volume (mean ± SEM)” value (22Rv1 tumors; day 24) of the same molecule?
The value was 1814 ± 186 mm^3.

What about the T/C (22Rv1 tumors; [6]) of the same molecule?
The T/C was 78.69%.

What about the TGI (22Rv1 tumors; [6]) of the same molecule?
Its TGI is 22.17%.

What about the “Tumor volume (mean ± SEM)” value (VCap prostate cancer; Day 0) of the same molecule?
The value was 171.8 ± 6.1 mm^3.

And the “Tumor volume (mean ± SEM)” value (VCap prostate cancer; Day 4)?
Its value is 287.4 ± 17^ mm^3.

What about the “Tumor volume (mean ± SEM)” value (VCap prostate cancer; Day 7) of the same molecule?
Its value is 352.2 ± 28.8 mm^3.

And the “Tumor volume (mean ± SEM)” value (VCap prostate cancer; Day 11)?
The value was 542.8 ± 50.7 mm^3.

And the “Tumor volume (mean ± SEM)” value (VCap prostate cancer; Day 14)?
Its value is 662.7 ± 51.7 mm^3.

What about the “Tumor volume (mean ± SEM)” value (VCap prostate cancer; Day 18) of the same molecule?
Its value is 761.9 ± 60.9 mm^3.

And the “Tumor volume (mean ± SEM)” value (VCap prostate cancer; Day 21)?
The value was 891.2 ± 82.8 mm^3.

What about the “Tumor volume (mean ± SEM)” value (VCap prostate cancer; Day 25) of the same molecule?
The value was 1005.9 ± 71.4 mm^3.
